The values below come from patent US11065257B2, “Substituted pyrazoloazepin-4-ones and their use as phosphodiesterase inhibitors” (LEO Pharma A/S, priority 2016, dated 2021).

The structures appear in SMILES notation. pIC50: −log10 of the molar value.

This experiment deals with T1, human PDE4D catalytic domain (Homo sapiens, UniProt Q08499).
T1 construct: UniProt no; Q08499 [S380-L740]
T1 sequence (Q08499 380-740): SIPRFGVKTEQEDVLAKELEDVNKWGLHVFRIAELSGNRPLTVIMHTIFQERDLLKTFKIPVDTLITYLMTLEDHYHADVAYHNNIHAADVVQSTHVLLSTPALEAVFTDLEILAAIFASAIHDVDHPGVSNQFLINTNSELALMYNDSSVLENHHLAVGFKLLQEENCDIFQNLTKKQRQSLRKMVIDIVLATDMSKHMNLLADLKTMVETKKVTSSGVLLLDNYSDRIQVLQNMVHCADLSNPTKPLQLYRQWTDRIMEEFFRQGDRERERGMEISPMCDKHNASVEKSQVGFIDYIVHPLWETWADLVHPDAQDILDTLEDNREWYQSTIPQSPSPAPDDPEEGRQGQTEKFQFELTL
Briefly: PDE4 Assay. It is filed as biochemical. The conditions noted are these: human PDE4D catalytic domain (S380-L740), TR-FRET with FAM-cAMP; expressed as a range of IC50; read-out: PDE4 Potency Range. The method, then: The human PDE4D catalytic domain (UniProt no. Q08499 [S380-L740]) was incubated with a mixture of non-labelled cAMP (cyclic adenosine monophosphate) and fluorescein amidite (FAM) conjugated cAMP and titrated test or reference compound. Following brief incubation the enzymatic reaction was stopped by addition of binding buffer containing nanoparticles with immobilized trivalent metal ions capable of binding 1) AMP phospho groups and 2) terbium (Tb) donor fluorophores. Subsequent excitation of the Tb donor triggers time-resolved FRET to adjacent FAM acceptor molecules resulting in light emission. In the presence of a PDE4 inhibitor, AMP generation was reduced resulting in a lower fluorescence signal. The cAMP phosphodiester is not bound by the detection system.
The results were calculated as the molar concentrations resulting in 50% inhibition of the substrate cleavage compared to controls samples, and are expressed as a range of IC50 (nM).
On the technique in general: TR-FRET usually uses a lanthanide donor and a delayed reading to cut background.
`CCc1nn(CCOC(=O)c2ccno2)c2c1C(=O)NCC1(CCOCC1)C2` [Example 1, 2-(3-ethyl-4-oxo-spiro[6,8-dihydro-5H-pyrazolo[4,3-c]azepine-7,4′-tetrahydropyran]-1-yl)ethyl isoxazole-5-carboxylate]: the pIC50 is 6.30 to 7.00.
Take `CCc1nn(CCOC(=O)c2cocn2)c2c1C(=O)NCC1(CCOCC1)C2` [Example 2, 2-(3-ethyl-4-oxo-spiro[6,8-dihydro-5H-pyrazolo[4,3-c]azepine-7,4′-tetrahydropyran]-1-yl)ethyl oxazole-4-carboxylate]: the pIC50 is < 6.30.
`CCc1nn(CCOC(=O)c2cnn(C)c2)c2c1C(=O)NCC1(CCOCC1)C2` [Example 3, 2-(3-ethyl-4-oxo-spiro[6,8-dihydro-5H-pyrazolo[4,3-c]azepine-7,4′-tetrahydropyran]-1-yl)ethyl 1-methylpyrazole-4-carboxylate]: the pIC50 was < 6.30.
As to `CCc1nn(CCOC(=O)c2cc(C)on2)c2c1C(=O)NCC1(CCOCC1)C2` [Example 4, 2-(3-ethyl-4-oxo-spiro[6,8-dihydro-5H-pyrazolo[4,3-c]azepine-7,4′-tetrahydropyran]-1-yl)ethyl 5-methylisoxazole-3-carboxylate], the pIC50 was 6.30 to 7.00.
Consider `CCc1nn(CCOC(=O)c2coc(C)n2)c2c1C(=O)NCC1(CCOCC1)C2` [Example 5, 2-(3-ethyl-4-oxo-spiro[6,8-dihydro-5H-pyrazolo[4,3-c]azepine-7,4′-tetrahydropyran]-1-yl)ethyl 2-methyloxazole-4-carboxylate], for which the pIC50 is < 6.30.
As to `CCc1nn(CCOC(=O)c2cnc(C)o2)c2c1C(=O)NCC1(CCOCC1)C2` [Example 6, 2-(3-ethyl-4-oxo-spiro[6,8-dihydro-5H-pyrazolo[4,3-c]azepine-7,4′-tetrahydropyran]-1-yl)ethyl 2-methyloxazole-5-carboxylate], the pIC50 was < 6.30.
Turning to `CCc1nn(CCOC(=O)c2cscn2)c2c1C(=O)NCC1(CCOCC1)C2` [Example 7, 2-(3-ethyl-4-oxo-spiro[6,8-dihydro-5H-pyrazolo[4,3-c]azepine-7,4′-tetrahydropyran]-1-yl)ethyl thiazole-4-carboxylate], the pIC50 was < 6.30.
In the case of `CCc1nn(CCOC(=O)C2CCOCC2)c2c1C(=O)NCC1(CCOCC1)C2` [Example 8, 2-(3-ethyl-4-oxo-spiro[6,8-dihydro-5H-pyrazolo[4,3-c]azepine-7,4′-tetrahydropyran]-1-yl)ethyl tetrahydropyran-4-carboxylate], the pIC50 is < 6.30.
As to `CCc1nn(CCOC(=O)Cc2cccn2C)c2c1C(=O)NCC1(CCOCC1)C2` [Example 9, 2-(3-ethyl-4-oxo-spiro[6,8-dihydro-5H-pyrazolo[4,3-c]azepine-7,4′-tetrahydropyran]-1-yl)ethyl 2-(1-methylpyrrol-2-yl)acetate], the pIC50 is < 6.30.
Turning to `CCc1nn(CCOC(=O)c2cc(C)n(C)n2)c2c1C(=O)NCC1(CCOCC1)C2` [Example 10, 2-(3-ethyl-4-oxo-spiro[6,8-dihydro-5H-pyrazolo[4,3-c]azepine-7,4′-tetrahydropyran]-1-yl)ethyl 1,5-dimethylpyrazole-3-carboxylate], the pIC50 was < 6.30.
As for `CCc1nn(CCOC(=O)Cc2cc(C)on2)c2c1C(=O)NCC1(CCOCC1)C2` [Example 11, 2-(3-ethyl-4-oxo-spiro[6,8-dihydro-5H-pyrazolo[4,3-c]azepine-7,4′-tetrahydropyran]-1-yl)ethyl 2-(5-methylisoxazol-3-yl)acetate], the pIC50 is < 6.30.
For `CCc1nn(CCOC(=O)Cc2cc(C)no2)c2c1C(=O)NCC1(CCOCC1)C2` [Example 12, 2-(3-ethyl-4-oxo-spiro[6,8-dihydro-5H-pyrazolo[4,3-c]azepine-7,4′-tetrahydropyran]-1-yl)ethyl 2-(3-methylisoxazol-5-yl)acetate], the pIC50 is < 6.30.
Regarding `CCc1nn(CCOC(=O)c2cc(C)ns2)c2c1C(=O)NCC1(CCOCC1)C2` [Example 13, 2-(3-ethyl-4-oxo-spiro[6,8-dihydro-5H-pyrazolo[4,3-c]azepine-7,4′-tetrahydropyran]-1-yl)ethyl 3-methylisothiazole-5-carboxylate], the pIC50 is 6.30 to 7.00.
For `CCc1nn(CCOC(=O)c2nc(C)cs2)c2c1C(=O)NCC1(CCOCC1)C2` [Example 14, 2-(3-ethyl-4-oxo-spiro[6,8-dihydro-5H-pyrazolo[4,3-c]azepine-7,4′-tetrahydropyran]-1-yl)ethyl 4-methylthiazole-2-carboxylate] the value was 6.30 to 7.00; for `CCc1nn(CCOC(=O)Cc2csc(C)n2)c2c1C(=O)NCC1(CCOCC1)C2` [Example 15, 2-(3-ethyl-4-oxo-spiro[6,8-dihydro-5H-pyrazolo[4,3-c]azepine-7,4′-tetrahydropyran]-1-yl)ethyl 2-(2-methylthiazol-4-yl)acetate], < 6.30; for `CCc1nn(CCOC(=O)C2CCN(C(C)=O)CC2)c2c1C(=O)NCC1(CCOCC1)C2` [Example 16, 2-(3-ethyl-4-oxo-spiro[6,8-dihydro-5H-pyrazolo[4,3-c]azepine-7,4′-tetrahydropyran]-1-yl)ethyl 1-acetylpiperidine-4-carboxylate], < 6.30.
Turning to `CCc1nn(CCCOC(=O)c2c[nH]cn2)c2c1C(=O)NCC1(CCOCC1)C2` [Example 17, 3-(3-ethyl-4-oxo-spiro[6,8-dihydro-5H-pyrazolo[4,3-c]azepine-7,4′-tetrahydropyran]-1-yl)propyl 1H-imidazole-4-carboxylate], the pIC50 was < 6.30.
For the molecule `CCc1nn(CCCOC(=O)c2cc[nH]n2)c2c1C(=O)NCC1(CCOCC1)C2` [Example 18, 3-(3-ethyl-4-oxo-spiro[6,8-dihydro-5H-pyrazolo[4,3-c]azepine-7,4′-tetrahydropyran]-1-yl)propyl 1H-pyrazole-3-carboxylate], the pIC50 is 6.30 to 7.00.
As for `CCc1nn(CCCOC(=O)c2ncc[nH]2)c2c1C(=O)NCC1(CCOCC1)C2` [Example 19, 3-(3-ethyl-4-oxo-spiro[6,8-dihydro-5H-pyrazolo[4,3-c]azepine-7,4′-tetrahydropyran]-1-yl)propyl 1H-imidazole-2-carboxylate], the pIC50 was < 6.30.
In the case of `CCc1nn(CCCOC(=O)c2cn[nH]c2)c2c1C(=O)NCC1(CCOCC1)C2` [Example 20, 3-(3-ethyl-4-oxo-spiro[6,8-dihydro-5H-pyrazolo[4,3-c]azepine-7,4′-tetrahydropyran]-1-yl)propyl 1H-pyrazole-4-carboxylate], the pIC50 was 6.30 to 7.00.
In the case of `CCc1nn(CCCOC(=O)c2ccon2)c2c1C(=O)NCC1(CCOCC1)C2` [Example 21, 3-(3-ethyl-4-oxo-spiro[6,8-dihydro-5H-pyrazolo[4,3-c]azepine-7,4′-tetrahydropyran]-1-yl)propyl isoxazole-3-carboxylate], the pIC50 is < 6.30.
With `CCc1nn(CCCOC(=O)c2ccno2)c2c1C(=O)NCC1(CCOCC1)C2` [Example 22, 3-(3-ethyl-4-oxo-spiro[6,8-dihydro-5H-pyrazolo[4,3-c]azepine-7,4′-tetrahydropyran]-1-yl)propyl isoxazole-5-carboxylate], the pIC50 is 6.30 to 7.00.
`CCc1nn(CCCOC(=O)c2cocn2)c2c1C(=O)NCC1(CCOCC1)C2` [Example 23, 3-(3-ethyl-4-oxo-spiro[6,8-dihydro-5H-pyrazolo[4,3-c]azepine-7,4′-tetrahydropyran]-1-yl)propyl oxazole-4-carboxylate]: the pIC50 was < 6.30.
